In patent publication US10570155B2, “Imidazooxazole derivative having antitumor effect, and pharmaceutical composition including same” (KOREA INSTITUTE OF SCIENCE AND TECHNOLOGY, priority 2016, dated 2020):

How the values were obtained:
LOX IMVI = assay: NCI cancer cell line panel screening (SRB), melanoma cell line LOX IMVI; assay type: cell-based, human; settings: Homo sapiens, read-out: IC50 against melanoma cell line in vitro
Experimental: According to the standard protocol (http://dtp.nci.nih.gov/dtpstandard/dwindex/index.isp) of the US National Cancer Institute (NCI) (www.dtp.nci.nih.gov), screening of a cancer cell line panel was performed. […] For a general screening experiment, cells were inoculated in 96-well microtiter plates in 100 μl at a plating density ranging from 5000 cells/well to 40,000 cells/well depending on the doubling time of individual cell lines. After cell inoculation, the microtiter plates were incubated at 37° C., 5% CO2, 95% air, and 100% relative humidity for 24 hours prior to addition of test compounds. 24 hours later, two plates of each cell line were fixed in situ with trichloroacetic acid (TCA) to measure the cell population for each cell line at the time of test compound addition (Tz). Test compounds were solubilized in dimethyl sulfoxide at 400-fold the intended final maximum test concentration, and stored frozen prior to use. At the time of compound addition, an aliquot of frozen concentrate was thawed and diluted to twice the intended final maximum test concentration with a complete medium containing 50 μg/ml of gentamicin. Additional four concentration of 10-fold or ½ log serial dilutions were made to provide a total of five compound concentrations plus control. Aliquots of 100 μl of these different compound dilutions were added to appropriate microtiter wells already containing 100 μl of medium, resulting in the required final compound concentrations.
Following compound addition, the plates were incubated for additional 48 hours at 37° C., 5% CO2, 95% air, and 100% relative humidity. For adherent cells, the assay was terminated by the addition of cold TCA. Cells were fixed in situ by the gentle addition of 50 μl of cold 50% (w/v) TCA (final concentration, 10% TAC) and incubated at 4° C. for 60 minutes. The supernatant was discarded, and the plates were washed five times with tap water and air-dried. A sulforhodamine B (SRB) solution (100 μl) at 0.4% (w/v) in 1% acetic acid was added to each well, and plates were incubated at room temperature for 10 minutes. After staining, unbound dye was removed by washing five times with 1% acetic acid and the plates were air-dried. […] For suspension cells, the methodology was the same except that the assay was terminated by fixing settled cells at the bottom of the wells by gently adding 50 μl of 80% TCA (final concentration, 16% TCA). Using the seven absorbance measurements [time zero (Tz), control growth (C), and test growth rate in the presence of compound at the five concentration levels (Ti)], the growth percentage was calculated at each of the compound concentration levels. Growth inhibition percentage was calculated as follows: [(Ti−Tz)/(C−Tz)]×100 for concentrations for which Ti>/=Tz [(Ti−Tz)/Tz]×100 for concentrations for which Ti<Tz.

[1] = tested on: A375P cell line xenograft; assay: Tumor-inhibitory effects in melanoma mouse xenograft model; assay type: in vivo, nude mice; design: Tumor size: unit not given here
Experimental: In this experiment, A375P cell line which is a human-derived malignant melanoma cell line was subcutaneously administered to nude mice to prepare xenograft models, and the test material (compound 2II) was administered to the xenograft models to evaluate anti-cancer effects (GI: an excipient control group, G2: a group administered with 20 mg/kg/day of the test material, and G3: a group administered with 50 mg/kg/day of the test material).

MDA-MB-435 = assay: NCI cancer cell line panel screening (SRB), melanoma cell line MDA-MB-435; assay type: cell-based; settings: Homo sapiens, read-out: IC50 against melanoma cell line in vitro
Experimental: (§1) According to the standard protocol (http://dtp.nci.nih.gov/dtpstandard/dwindex/index.isp) of the US National Cancer Institute (NCI) (www.dtp.nci.nih.gov), screening of a cancer cell line panel was performed. Briefly, human cell lines were allowed to grow in an RPMI 1640 medium containing 5% FBS and 2 mM L-glutamine. For a general screening experiment, cells were inoculated in 96-well microtiter plates in 100 μl at a plating density ranging from 5000 cells/well to 40,000 cells/well depending on the doubling time of individual cell lines. After cell inoculation, the microtiter plates were incubated at 37° C., 5% CO2, 95% air, and 100% relative humidity for 24 hours prior to addition of test compounds. 24 hours later, two plates of each cell line were fixed in situ with trichloroacetic acid (TCA) to measure the cell population for each cell line at the time of test compound addition (Tz). Test compounds were solubilized in dimethyl sulfoxide at 400-fold the intended final maximum test concentration, and stored frozen prior to use. At the time of compound addition, an aliquot of frozen concentrate was thawed and diluted to twice the intended final maximum test concentration with a complete medium containing 50 μg/ml of gentamicin. Additional four concentration of 10-fold or ½ log serial dilutions were made to provide a total of five compound concentrations plus control. Aliquots of 100 μl of these different compound dilutions were added to appropriate microtiter wells already containing 100 μl of medium, resulting in the required final compound concentrations.
(§2) Following compound addition, the plates were incubated for additional 48 hours at 37° C., 5% CO2, 95% air, and 100% relative humidity. For adherent cells, the assay was terminated by the addition of cold TCA. Cells were fixed in situ by the gentle addition of 50 μl of cold 50% (w/v) TCA (final concentration, 10% TAC) and incubated at 4° C. for 60 minutes. The supernatant was discarded, and the plates were washed five times with tap water and air-dried. A sulforhodamine B (SRB) solution (100 μl) at 0.4% (w/v) in 1% acetic acid was added to each well, and plates were incubated at room temperature for 10 minutes. After staining, unbound dye was removed by washing five times with 1% acetic acid and the plates were air-dried. Bound stain was subsequently solubilized with 10 mM Trizma base, and the absorbance was read on an automated plate reader at a wavelength of 515 nm. For suspension cells, the methodology was the same except that the assay was terminated by fixing settled cells at the bottom of the wells by gently adding 50 μl of 80% TCA (final concentration, 16% TCA). Using the seven absorbance measurements [time zero (Tz), control growth (C), and test growth rate in the presence of compound at the five concentration levels (Ti)], the growth percentage was calculated at each of the compound concentration levels. Growth inhibition percentage was calculated as follows: [(Ti−Tz)/(C−Tz)]×100 for concentrations for which Ti>/=Tz [(Ti−Tz)/Tz]×100 for concentrations for which Ti<Tz.

A375 = assay: NCI cancer cell line panel screening (SRB), melanoma cell line A375; assay type: cell-based; settings: Homo sapiens, A-375, read-out: IC50 against melanoma cell line in vitro
Experimental: as §1, §2

UACC-62 = assay: NCI cancer cell line panel screening (SRB), melanoma cell line UACC-62; assay type: cell-based; settings: Homo sapiens, read-out: IC50 against melanoma cell line in vitro
Experimental: as §1, §2

[2] = 20 and 50 mg/kg/day, intravenous, twice per week for 3 weeks

**Q.** With `CCN1CCN(CCNc2nccc(-c3c(-c4cccc(O)c4)nc4occn34)n2)S1(=O)=O` [2II, 2-Ethyl-5-(2-((4-(6-(3-hydroxylphenyl)imidazo[2,1-b]oxazol-5-yl)pyrimidin-2-yl)amino)ethyl)-1,2,5-thiadiazolidine 1,1-dioxide] as the compound, how does the IC50 (LOX IMVI) read?
**A.** The IC50 was 2530 nM.

**Q.** And the “General symptoms and deaths” value [1, 2]?
**A.** Its value is “no deaths or no abnormalities in general symptoms were observed”.

**Q.** And the “Increase of the tumor size” value [1, 2]?
**A.** Its value is “inhibited in a dose-dependent manner”.

**Q.** And the “Tumor size, difference between experimental groups” value ([1]; G1, G2 (20 mg/kg/day), G3 (50 mg/kg/day))?
**A.** Its value is “no significant difference between all experimental groups”.

**Q.** And the Tumor size ([1]; G2, 20 mg/kg/day, day 0)?
**A.** The Tumor size was 145.08 ± 20.85.

**Q.** What about the Tumor size ([1]; G2, 20 mg/kg/day, day 4) of the same compound?
**A.** Its Tumor size is 271.88 ± 60.05.

**Q.** What about the Tumor size ([1]; G2, 20 mg/kg/day, day 7) of the same compound?
**A.** Its Tumor size is 556.42 ± 161.21.

**Q.** And the Tumor size ([1]; G2, 20 mg/kg/day, day 11)?
**A.** The Tumor size was 978.91 ± 258.24.

**Q.** And the Tumor size ([1]; G2, 20 mg/kg/day, day 14)?
**A.** The Tumor size was 1711.5 ± 631.79.

**Q.** What about the Tumor size ([1]; G2, 20 mg/kg/day, day 18) of the same compound?
**A.** The Tumor size was 2438.5 ± 962.99.

**Q.** And the Tumor size ([1]; G2, 20 mg/kg/day, day 21)?
**A.** Its Tumor size is 3200.6 ± 944.99.

**Q.** What about the “Body weight gain compared with excipient control group” value ([1]; G3, 50 mg/kg/day) of the same compound?
**A.** The value was “significantly low”.

**Q.** And the “Body weight compared with control group (G1)” value ([1]; G3, 50 mg/kg/day, at 14 days and 21 days after administration)?
**A.** Its value is “significantly low”.

**Q.** And the Tumor size ([1]; G3, 50 mg/kg/day, day 0)?
**A.** Its Tumor size is 149.36 ± 20.91.

**Q.** And the Tumor size ([1]; G3, 50 mg/kg/day, day 4)?
**A.** Its Tumor size is 276.08 ± 86.17.

**Q.** And the Tumor size ([1]; G3, 50 mg/kg/day, day 7)?
**A.** The Tumor size was 442.88 ± 73.08.

**Q.** And the Tumor size ([1]; G3, 50 mg/kg/day, day 11)?
**A.** Its Tumor size is 754.16 ± 211.86.

**Q.** What about the Tumor size ([1]; G3, 50 mg/kg/day, day 14) of the same compound?
**A.** The Tumor size was 1174.7 ± 411.22.

**Q.** What about the Tumor size ([1]; G3, 50 mg/kg/day, day 18) of the same compound?
**A.** The Tumor size was 1543.9 ± 411.21.

**Q.** And the Tumor size ([1]; G3, 50 mg/kg/day, day 21)?
**A.** The Tumor size was 2063.1 ± 657.93.

**Q.** What about the IC50 (MDA-MB-435) of the same compound?
**A.** The IC50 was 370 nM.

**Q.** What about the IC50 (A375) of the same compound?
**A.** The IC50 was 190 nM.

**Q.** And the IC50 (UACC-62)?
**A.** Its IC50 is 70 nM.
